Measured values published in publication PMC7461020 (The EMBO Journal, 2020).
Entries after “also recorded” stand apart in the source; their conditions may differ.

Tests used:
[1] = system: SARS-CoV-2; type: cell-based
[2] = system: SARS-CoV-2; type: cell-based; remark: listed apart in the source
[3] = system: Vero cells

Compound: CCN(CCO)CCCC(C)Nc1ccnc2cc(Cl)ccc12 (centres unmarked) [Hydroxychloroquine, reference compound]
- Rescue of CPE [1]: ~ 90%
- Reduction of viral titre [2]: 10 fold

Compound: CCC(CC)COC(=O)[C@H](C)N[P@](=O)(OC[C@H]1O[C@@](C#N)(c2ccc3c(N)ncnn23)[C@H](O)[C@@H]1O)Oc1ccccc1 [Remdesivir, reference compound]
- Reversal of SARS-CoV-2 induced CPE [1]: ~ 90%

Compound: CC(c1cccc2ccccc12)N1CCC(C(=O)NCc2cccc(F)c2)CC1 (stereo not drawn) [rac3k]
- CPE reduction at lower concentrations [1]: diminished
- Effect on SARS-CoV-2-induced CPE [1]: significantly rescued infected cells; also recorded: reduced SARS‐CoV‐2‐induced CPE
- Remaining cell death [1]: around 20%
- Toxicity on Vero cells [3]: no toxicity
- Cellular toxicity ([3]; African green monkey): ~25%
